Test results taken from patent US6451340B1, “Nucleotide analog compositions” (Gilead Sciences, Inc., priority 1997, dated 2002).
Like-named read-outs stand apart in the source and are kept apart here.

How the values were obtained:
[1] = AD solubility in crystallization solvents; assay type: physicochemical; details: for solubility: organic solvent or mixture
Description: Crystalline AD is prepared by allowing crystal formation in an AD composition, usually from a solution of AD in a crystallization mixture containing at least about 6%, typically at least about 30%, usually at least about 35%, of AD. One would ordinarily conduct crystallizations by preparing an AD solution comprising about 6-45% AD and about 55-94% crystallization solvent. […] AD is not freely soluble in some crystallization solvents, e.g., AD solubility in di-n-butyl ether is less than about 0.3 mg/mL, and adding these solvents to an AD solution increases the degree of saturation or supersaturation of the solution. One usually uses organic solutions containing an amount of AD that is near the upper solubility limit in the crystallization solvent(s). The lower amount, about 6%, is the minimum amount of AD needed in a solution to consistently yield crystals. Certain solvents, e.g., methanol or CH2Cl2, can contain more than about 50% AD.
One usually prepares Form 3 crystals by allowing crystals to grow in an anhydrous methanol solution of AD. One obtains AD in methanol by mixing sufficient noncrystalline or crystalline AD in methanol for about 10-15 minutes at room temperature or as needed to dissolve the solid AD to obtain a solution having at least about 100-150 mg AD/mL methanol. AD solubility in methanol at room temperature is greater than 600 mg/mL. Crystallization then proceeds for about 4 to about 48 hours at a temperature of about −5° to about 25°, usually at about 0-23°.
Recrystallization generally begins shortly after completion of adding and mixing the di-n-butyl ether and one then allows recrystallization to proceed for about 4-36 hours, usually about 6-24 hours. Additional yield of crystals from recrystallization at room temperature for about 4-36 hours is usually obtained by cooling the recrystallization mixture to about 4-10° and allowing the mixture to stand about 1-6 hours at the reduced temperature. Usually, the amount of AD one uses in a recrystallization will be sufficient to form a saturated or nearly saturated solution, i.e., about 0.4 g/mL using acetone. Dissolution of AD in acetone is complete in about 2-8 minutes using moderate agitation. Material remaining undissolved after this initial mixing period is removed and discarded, followed by adding the second less polar solvent of the solvent pair to the mixture containing the first crystallization solvent.
One conducts a Form 3 recrystallization in methanol in the same manner as described herein for preparation of Form 3 crystals. A saturated or nearly saturated methanol solution is used to prepare the crystals, i.e., at least about 0.6 g/mL AD.

[2] = L-carnitine levels in patients taking AD; assay type: in vivo
Description: Formulations containing crystalline AD and an excipient(s) may also contain L-carnitine or salts of L-carnitine, e.g., L-carnitine-L-tartrate (2:1). […] Tablets containing L-carnitine-L-tartrate and AD may decrease the effect of pivalic acid on L-carnitine depletion in patients taking AD. The amount of L-carnitine to be included will be apparent to the clinician in view of the extent of depletion in patients.

For CC(C)(C)C(=O)OCOP(=O)(COCCn1cnc2c(N)ncnc21)OCOC(=O)C(C)(C)C [AD, 9-[2-[[bis[(pivaloyloxy)methoxy]phosphinyl]methoxy]ethyl]adenine], the “saturated or nearly saturated solution of AD” value ([1]; acetone) was “about 0.4 g/mL”, the solubility ([1]; di-n-butyl ether, read-out: AD solubility in di-n-butyl ether) was under 0.3 mg/mL and the “saturated or nearly saturated solution of AD” value ([1]; methanol) was “at least 0.6 g/mL”. The “amount of AD the solvent can contain” value ([1]; methanol or CH2Cl2, % w/w) was “more than 50%”, the “upper limit of solubility of AD” value ([1]; most crystallization solvents, room temperature, % w/w) was 10-41% and the solubility ([1]; methanol, room temperature, read-out: AD solubility in methanol) was over 600 mg/mL. For the same compound, the “effect on L-carnitine levels (release of pivalic acid in vivo)” value [2] was “appears to lower the levels of L-carnitine”.
